Reference: PubChem BioAssay (NCI)
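Where inhibition never reached the appropriate level, the endpoint shown equals the highest concentration tested. Otherwise, values were interpolated linearly from a five-concentration, 48-hour dose response in 96-well plates. GI50 marks 50% less growth. TGI marks complete inhibition of growth.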

Experiments:
Experiment in all cases: NCI anticancer screen, dose series, 48 h
HCT-15 colon = system: HCT-15 colon
786-0 renal = system: 786-0 renal
K-562 leukemia = system: K-562 leukemia
NCI-H460 lung = system: NCI-H460 lung
LOX IMVI melanoma = system: LOX IMVI melanoma
SK-MEL-2 melanoma = system: SK-MEL-2 melanoma
ACHN renal = system: ACHN renal
NCI/ADR-RES ovarian = system: NCI/ADR-RES ovarian
OVCAR-8 ovarian = system: OVCAR-8 ovarian
IGROV1 ovarian = system: IGROV1 ovarian

SMILES | TGI (HCT-15 colon) | TGI (786-0 renal) | TGI (K-562 leukemia) | TGI (NCI-H460 lung) | TGI (LOX IMVI melanoma) | TGI (SK-MEL-2 melanoma) | TGI (ACHN renal) | TGI (NCI/ADR-RES ovarian) | TGI (OVCAR-8 ovarian) | TGI (IGROV1 ovarian) | GI50 (HCT-15 colon) | GI50 (786-0 renal) | GI50 (K-562 leukemia) | GI50 (NCI-H460 lung) | GI50 (LOX IMVI melanoma) | GI50 (SK-MEL-2 melanoma) | GI50 (ACHN renal) | GI50 (NCI/ADR-RES ovarian) | GI50 (OVCAR-8 ovarian) | GI50 (IGROV1 ovarian)
Cc1ccc(S(=O)(=O)NNC(C[N+](=O)[O-])c2ccccc2)cc1 (configuration not stated) | 39.5 µM | > 100 µM | > 100 µM | 45.1 µM | > 100 µM | 75 µM | 40.9 µM | > 100 µM | 46.1 µM | 26.7 µM | – | – | – | – | – | – | – | – | – | –
CNC(C)[C@H]1CCC2C3CCC4C[C@@H](N(C)C(=O)c5ccccc5)CC[C@]4(C)C3CC[C@@]21C (some centres not stated) | 2.19 µM | 2.82 µM | 2.46 µM | 2.33 µM | 1.8 µM | 5.4 µM | 9.59 µM | 15.5 µM | 23.2 µM | 7.73 µM | 0.407 µM | 1.3 µM | 0.351 µM | 0.732 µM | 0.419 µM | 2.6 µM | 2.37 µM | 2.57 µM | 3.44 µM | 1.96 µM
CCOc1ccc(NC(=O)c2cc3ccccc3cc2O)cc1 | > 100 µM | 74.5 µM | > 100 µM | > 100 µM | > 100 µM | > 100 µM | > 100 µM | > 100 µM | > 100 µM | > 100 µM | > 100 µM | 28.4 µM | 52.5 µM | > 100 µM | 58.1 µM | 76.7 µM | 49.9 µM | 51.3 µM | 47.8 µM | 74 µM
O=C(Nc1nc(-c2ccccc2)cs1)c1cc(O)c(O)c(O)c1 | > 100 µM | 10.6 µM | > 100 µM | 17 µM | 32.1 µM | – | 56.3 µM | > 100 µM | > 100 µM | 22.8 µM | 3.14 µM | 3.38 µM | 2.72 µM | 3.43 µM | 3.62 µM | – | 2.47 µM | 3.7 µM | 3.38 µM | 3.12 µM
C[C@@H]1CC[C@@H]2[C@@H]1[C@H](OC(=O)c1ccc3ccccc3c1)[C@]1(C3CCCCC3)C[C@@H](OC(=O)CO)[C@@]2(C)O1 | 22.4 µM | 20 µM | 40.9 µM | 23.7 µM | 28.1 µM | 30.8 µM | – | 19.4 µM | 26.5 µM | 32.8 µM | 7.93 µM | 5.41 µM | 11.4 µM | 9.27 µM | 13.1 µM | 15.3 µM | – | 0.543 µM | 5.62 µM | 15.6 µM
COC(=O)c1ccc(NC(N)=NCC(C)(C)COc2ccc(C(F)(F)F)cc2)nc1 | 3.08 µM | 2.83 µM | – | 3.36 µM | – | 3.47 µM | 2.93 µM | 3.34 µM | – | – | 1.56 µM | 1.46 µM | – | 1.67 µM | – | 1.86 µM | 1.59 µM | 1.68 µM | – | –
CC1NCCc2c1[nH]c1cc(O)ccc21 (configuration not stated) | > 100 µM | > 100 µM | > 100 µM | > 100 µM | > 100 µM | > 100 µM | > 100 µM | – | > 100 µM | > 100 µM | – | – | – | – | – | – | – | – | – | –
